Experimental data published in patent US6420401B1, “1,2,5, thiadiazolidin-3-one 1,1-dioxide derivatives” (Wichita State University, priority 1997, dated 2002).
Values belong to the molecule of their own block, whether it stands above or below them.

How the values were obtained:
Format in all cases: biochemical
[1] = biological target: T1, human leukocyte elastase (HLE) (Homo sapiens, UniProt P08246); test: Inactivation of human leukocyte elastase, progress curve method
T1 sequence (P08246 30-267): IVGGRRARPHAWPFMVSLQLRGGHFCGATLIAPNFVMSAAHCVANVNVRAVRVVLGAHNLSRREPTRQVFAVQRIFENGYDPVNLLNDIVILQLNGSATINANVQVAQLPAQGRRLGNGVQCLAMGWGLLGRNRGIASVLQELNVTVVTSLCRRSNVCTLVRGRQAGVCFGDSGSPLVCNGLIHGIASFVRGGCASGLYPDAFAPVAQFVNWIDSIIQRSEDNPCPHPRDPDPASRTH
Method: (§1) Absorbance was recorded at 410 nm for reaction solutions containing 20.0 nM HLE, 1.00 mM MeOSuc-Ala-Ala-Pro-Val p-nitroanilide, and the indicated concentrations of inhibitor in 0.1 M HEPES buffer, pH 7.25, and 3.6% dimethyl sulfoxide. The temperature was maintained at 25° C., and the reactions were initiated by the addition of enzyme.
as §1, with “(Table 4). Absorbance” for “Absorbance”, “monitored” for “recorded”
(§2) An in vitro assay was used to screen compounds of the invention for the ability to reduce or inhibit serine protease activity. The human leukocyte elastase (HLE), cathepsin G (Cat G) and proteinase 3 (PR 3) assays have each been described in detail, Groutas et al. (1997) Biochemistry 36, 4739-4750. Chymase was assayed using N-succinyl Ala-Ala-Pro-Phe p-nitroanilide and 0.45 M Tris buffer/1.8 M NaCl, pH 8.03, Schechter, N. M. et al. (1993) J. Biol. Chem. 268, 23626-23633.
(§3) The rates of inactivation of HLE, Cat G or PR3 by each compound (or library of compounds) were determined by the progress curve method [Morrison, J. F. & Walsh, C. T. (1988) Adv. Enzymol. 61, 201-301]. Typical progress curves using a representative sulfonamide or heterocyclic sulfide inhibitor are illustrated in FIGS. 1 and 2, respectively. The apparent second-order rate constants kinact/kI M^−1 s^−1, the magnitude of which serves as an index of inhibitory potency, were determined by the progress curve method and are listed in Table 5 (sulfonamides), Table 6 (heterocyclic sulfides), Table 3 (oxa acids) , Tables 7 & 8 (libraries 1-30), and Table 9 (reversible inhibitors).

[2] = biological target: T2, human leukocyte cathepsin G (Cat G) (Homo sapiens, UniProt P08311); test: Inactivation of cathepsin G, progress curve method
T2 sequence (P08311 21-244): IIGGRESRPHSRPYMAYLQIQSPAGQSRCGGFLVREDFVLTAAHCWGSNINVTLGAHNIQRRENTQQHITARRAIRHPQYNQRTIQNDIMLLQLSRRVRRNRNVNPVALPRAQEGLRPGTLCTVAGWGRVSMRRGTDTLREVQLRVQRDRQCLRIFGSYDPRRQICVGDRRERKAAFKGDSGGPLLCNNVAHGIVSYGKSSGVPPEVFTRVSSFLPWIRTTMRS
Method: as §2, §3
A solution of (L)-4,5-dibenzyl-1,2,5-thiadiazolidin-3-one 1,1 dioxide (0.5 g; 1.58 mmol) and ethyl α-bromofluoroacetate (0.44 g; 2.37 mmol) in dry dimethyl formamide (3 mL) was treated with 60% sodium hydride ([…]; 1.58 mmol). The reaction mixture was kept at 55° C. for 1 h using a water bath. The solvent was removed in vacuo and the product was dissolved in ethyl acetate (35 mL) and washed with water (3×10 mL), 5% sodium bicarbonate (2×10 mL) and dried over anhydrous sodium sulfate. Evaporation of the solvent yielded a crude product (0.56 g) which was purified by flash chromatography using silica gel and a hexane/methylene chloride gradient. The product K-1a (0.15 g; 25% yield) was screened against human leukocyte cathepsin G using the progress curve method (kinact/Ki>10,000 M^−1 s^−1). [drawing 45] [drawing 46] [drawing 47] [drawing 48] [drawing 49]

[3] = biological target: T3, Human Leukocyte Proteinase 3 (PR 3) (Homo sapiens, UniProt P24158); test: Inactivation of proteinase 3, progress curve method
T3 sequence (P24158 28-248): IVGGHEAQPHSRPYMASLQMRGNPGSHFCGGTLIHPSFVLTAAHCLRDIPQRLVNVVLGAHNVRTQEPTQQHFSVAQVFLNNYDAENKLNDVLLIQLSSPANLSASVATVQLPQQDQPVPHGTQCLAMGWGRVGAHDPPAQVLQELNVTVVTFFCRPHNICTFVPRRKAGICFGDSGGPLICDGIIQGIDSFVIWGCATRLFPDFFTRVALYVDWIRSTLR
Method: as §2, §3

[4] = Table 5, sulfonamides 31-49, apparent second-order rate constant
[5] = Table 6, heterocyclic sulfides 53-69

- kinact/KI [1, 4]: 11900 M⁻¹ s⁻¹
SMILES: CC(C)COC(=O)N(CN1C(=O)C(CC(C)C)N(C)S1(=O)=O)S(C)(=O)=O (centres unmarked) [Compound 31]

- kinact/KI [1, 4]: 40500 M⁻¹ s⁻¹
SMILES: CCCCOC(=O)N(CN1C(=O)C(CC(C)C)N(C)S1(=O)=O)S(C)(=O)=O (centres unmarked) [Compound 32]

- kinact/KI [1, 4]: 22000 M⁻¹ s⁻¹
SMILES: CC(C)CC1C(=O)N(CN(C(=O)OCc2ccccc2)S(C)(=O)=O)S(=O)(=O)N1C (centres unmarked) [Compound 33]

- kinact/KI [1, 4]: 1970 M⁻¹ s⁻¹
- kinact/KI ([2]; Table 5, sulfonamides 31-49): 5380 M⁻¹ s⁻¹
SMILES: CCCCOC(=O)N(CN1C(=O)C(Cc2ccccc2)N(Cc2ccccc2)S1(=O)=O)S(C)(=O)=O (centres unmarked) [Compound 38]

- kinact/KI [1, 4]: 71000 M⁻¹ s⁻¹
SMILES: CC(C)CC1C(=O)N(CN(C(=O)c2ccccc2)S(C)(=O)=O)S(=O)(=O)N1C (centres unmarked) [Compound 39]

- kinact/KI [1, 4]: 28300 M⁻¹ s⁻¹
- kinact/KI ([3]; Table 5, sulfonamides 31-49): 10100 M⁻¹ s⁻¹
- kinact/KI ([2]; Table 5, sulfonamides 31-49): 220 M⁻¹ s⁻¹
SMILES: CC(C)CC1C(=O)N(CN(C(=O)Cc2ccccc2)S(C)(=O)=O)S(=O)(=O)N1C (centres unmarked) [Compound 40]

- kinact/KI [1, 4]: 140000 M⁻¹ s⁻¹
- kinact/KI ([3]; Table 5, sulfonamides 31-49): 27400 M⁻¹ s⁻¹
SMILES: CC(C)CC1C(=O)N(CN(C(=O)CNC(=O)OC(C)(C)C)S(C)(=O)=O)S(=O)(=O)N1C (centres unmarked) [Compound 42]

- kinact/KI [1, 4]: 229000 M⁻¹ s⁻¹
- kinact/KI ([3]; Table 5, sulfonamides 31-49): 27400 M⁻¹ s⁻¹
- kinact/KI ([2]; Table 5, sulfonamides 31-49): 60 M⁻¹ s⁻¹
SMILES: CC(C)CC1C(=O)N(CN(C(=O)CNC(=O)OCc2ccccc2)S(C)(=O)=O)S(=O)(=O)N1C (centres unmarked) [Compound 43]

- kinact/KI [1, 4]: 149000 M⁻¹ s⁻¹
SMILES: CC(C)CC1C(=O)N(CN(C(=O)CNC(=O)OC(C)(C)C)S(C)(=O)=O)S(=O)(=O)N1Cc1ccccc1 (centres unmarked) [Compound 44]

- kinact/KI [1, 4]: 134000 M⁻¹ s⁻¹
- kinact/KI ([3]; Table 5, sulfonamides 31-49): 30100 M⁻¹ s⁻¹
- kinact/KI ([2]; Table 5, sulfonamides 31-49): 70 M⁻¹ s⁻¹
SMILES: CC(C)CC1C(=O)N(CN(C(=O)CNC(=O)OCc2ccccc2)S(C)(=O)=O)S(=O)(=O)N1Cc1ccccc1 (centres unmarked) [Compound 45]

- kinact/KI [1, 4]: 14100 M⁻¹ s⁻¹
- kinact/KI ([3]; Table 5, sulfonamides 31-49): 5190 M⁻¹ s⁻¹
- kinact/KI ([2]; Table 5, sulfonamides 31-49): 70 M⁻¹ s⁻¹
SMILES: CCOC(=O)CNC(=O)N(CN1C(=O)C(CC(C)C)N(Cc2ccccc2)S1(=O)=O)S(C)(=O)=O (centres unmarked) [Compound 48]

- kinact/KI [1, 4]: 850 M⁻¹ s⁻¹
SMILES: CC(C)CC1C(=O)N(CN2C(=O)C(CC(C)C)N(Cc3ccccc3)S2(=O)=O)S(=O)(=O)N1Cc1ccccc1 (centres unmarked) [Compound 49]

- kinact/KI [1, 5]: 153000 M⁻¹ s⁻¹
SMILES: CC(C)CC1C(=O)N(CSc2nc(-c3ccccc3)no2)S(=O)(=O)N1C (centres unmarked) [Compound 53]

- kinact/KI [1, 5]: 67300 M⁻¹ s⁻¹
SMILES: CC(C)CC1C(=O)N(CSc2nc3ccccc3s2)S(=O)(=O)N1C (centres unmarked) [Compound 54]

- kinact/KI [1, 5]: 174000 M⁻¹ s⁻¹
- kinact/KI [3, 5]: 9130 M⁻¹ s⁻¹
- kinact/KI [2, 5]: 60 M⁻¹ s⁻¹
SMILES: CC(C)CC1C(=O)N(CSc2nc3ccccc3o2)S(=O)(=O)N1Cc1ccccc1 (centres unmarked) [Compound 55]

- kinact/KI [1, 5]: 560 M⁻¹ s⁻¹
SMILES: CC(C)CC1C(=O)N(CSc2nc(-c3ccccc3)c(-c3ccccc3)o2)S(=O)(=O)N1Cc1ccccc1 (centres unmarked) [Compound 56]

- kinact/KI [1, 5]: 80600 M⁻¹ s⁻¹
- kinact/KI [3, 5]: 10400 M⁻¹ s⁻¹
- kinact/KI [2, 5]: 30 M⁻¹ s⁻¹
SMILES: CC(C)CC1C(=O)N(CSc2nc3ccccc3o2)S(=O)(=O)N1C (centres unmarked) [Compound 57]

- kinact/KI [1, 5]: 168000 M⁻¹ s⁻¹
SMILES: CC(C)CC1C(=O)N(CSc2nnc(-c3ccccc3)o2)S(=O)(=O)N1Cc1ccccc1 (centres unmarked) [Compound 58]

- kinact/KI [1, 5]: 22400 M⁻¹ s⁻¹
SMILES: CC(C)CC1C(=O)N(CSc2nc3ccccc3s2)S(=O)(=O)N1Cc1ccccc1 (centres unmarked) [Compound 59]

- kinact/KI [1, 5]: 1540 M⁻¹ s⁻¹
SMILES: CC(C)CC1C(=O)N(CSc2nc(-c3ccccc3)c(-c3ccccc3)o2)S(=O)(=O)N1C (centres unmarked) [Compound 60]

- kinact/KI [1, 5]: 25300 M⁻¹ s⁻¹
SMILES: CC(C)CC1C(=O)N(CSc2nnc(-c3ccccc3)o2)S(=O)(=O)N1C (centres unmarked) [Compound 61]

- kinact/KI [1, 5]: 67800 M⁻¹ s⁻¹
SMILES: CC(C)CC1C(=O)N(CSc2nc(-c3ccccc3)no2)S(=O)(=O)N1Cc1ccccc1 (centres unmarked) [Compound 62]

- kinact/KI [1, 5]: 22600 M⁻¹ s⁻¹
SMILES: CC(C)CC1C(=O)N(CSc2nc3cc(-c4ccccc4)ccc3o2)S(=O)(=O)N1C (centres unmarked) [Compound 63]

- kinact/KI HLE [1, 5]: inactive
- kinact/KI [3, 5]: 1090 M⁻¹ s⁻¹
- kinact/KI [2, 5]: 50 M⁻¹ s⁻¹
SMILES: CC(C)CC1C(=O)N(CSc2nc3cc(-c4ccccc4)ccc3o2)S(=O)(=O)N1Cc1ccccc1 (centres unmarked) [Compound 64]

- kinact/KI HLE [1, 5]: inactive
- kinact/KI [2, 5]: 490 M⁻¹ s⁻¹
SMILES: CN1C(Cc2ccccc2)C(=O)N(CSc2nnc(-c3ccccc3)o2)S1(=O)=O (centres unmarked) [Compound 65]

- kinact/KI [2, 5]: 430 M⁻¹ s⁻¹
SMILES: CN1C(Cc2ccccc2)C(=O)N(CSc2nc3ccccc3o2)S1(=O)=O (centres unmarked) [Compound 66]

- kinact/KI [2, 5]: 17100 M⁻¹ s⁻¹
SMILES: O=C1C(Cc2ccccc2)N(Cc2ccccc2)S(=O)(=O)N1CSc1nc2ccccc2o1 (centres unmarked) [Compound 67]

- kinact/KI [2, 5]: 17500 M⁻¹ s⁻¹
SMILES: O=C1C(Cc2ccccc2)N(Cc2ccccc2)S(=O)(=O)N1CSc1nnc(-c2ccccc2)o1 (centres unmarked) [Compound 68]

- kinact/KI [2, 5]: 15700 M⁻¹ s⁻¹
SMILES: Nc1ccc2nc(SCN3C(=O)C(Cc4ccccc4)N(Cc4ccccc4)S3(=O)=O)oc2c1 (centres unmarked) [Compound 69]

- kinact/Ki ([2]; human leukocyte cathepsin G, progress curve method): > 10,000 M^−1 s^−1
SMILES: CCOC(=O)C(F)N1C(=O)C(Cc2ccccc2)N(Cc2ccccc2)S1(=O)=O (centres unmarked) [Compound K-1a]
